Assay results: US12304914B2, “Pyrazolo[3,4-d]pyrrolo[1,2-b]pyridazinyl compounds useful as IRAK4 inhibitors” (BRISTOL-MYERS SQUIBB COMPANY, priority 2019, dated 2025)

Biological target: IRAK4 (Homo sapiens (Human), UniProt Q9NWZ3)
Test: IRAK4 Inhibition Assay
Type: biochemical
Conditions: ATP 500 μM; FL-peptide 1.5 μM; IRAK4 0.6 nM; 60 min room temperature; Caliper LABCHIP 3000
Experimental: The assays were performed in U-bottom 384-well plates. The final assay volume was 30 μL prepared from 15 μL additions of enzyme and substrates (fluoresceinated peptide and ATP) and test compounds in assay buffer (20 mM HEPES pH 7.2, 10 mM MgCl2, 0.015% Brij 35 and 4 mM DTT). The reaction was initiated by the combination of IRAK4 with substrates and test compounds. The reaction mixture was incubated at room temperature for 60 min. and terminated by adding 45 μL of 35 mM EDTA to each sample. The reaction mixture was analyzed on the Caliper LABCHIP® 3000 (Caliper, Hopkinton, MA) by electrophoretic separation of the fluorescent substrate and phosphorylated product. Inhibition data were calculated by comparison to no enzyme control reactions for 100% inhibition and vehicle-only reactions for 0% inhibition. The final concentrations of reagents in the assays are ATP, 500 μM; FL-IPTSPITTTYFFFKKK peptide 1.5 μM; IRAK4, 0.6 nM; and DMSO, 1.6%.

Chain of IRAK4 (Q9NWZ3 whole entry): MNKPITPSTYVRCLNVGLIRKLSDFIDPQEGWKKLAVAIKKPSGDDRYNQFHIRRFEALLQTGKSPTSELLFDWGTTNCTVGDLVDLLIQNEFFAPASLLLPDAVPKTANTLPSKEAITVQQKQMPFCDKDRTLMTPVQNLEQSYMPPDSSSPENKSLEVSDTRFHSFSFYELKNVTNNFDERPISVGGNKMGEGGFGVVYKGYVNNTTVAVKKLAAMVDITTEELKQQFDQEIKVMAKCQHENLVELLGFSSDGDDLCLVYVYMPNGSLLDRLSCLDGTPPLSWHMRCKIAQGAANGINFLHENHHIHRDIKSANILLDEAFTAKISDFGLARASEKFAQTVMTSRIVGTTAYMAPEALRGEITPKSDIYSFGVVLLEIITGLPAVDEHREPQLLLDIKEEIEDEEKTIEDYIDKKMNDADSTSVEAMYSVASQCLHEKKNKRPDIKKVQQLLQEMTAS

Row | IC50 [nM] | SMILES
1 | 182 | COC(=O)NC1CCC(Nc2nn(C(C)C)c3c2cnn2cc(-c4ccncc4)cc32)CC1 (stereo not drawn) [Example 7, methyl (4-((1-isopropyl-8-(pyridin-4-yl)-1H-pyrazolo[3,4-d]pyrrolo[1,2-b]pyridazin-3-yl)amino)cyclohexyl)carbamate]
2 | 756 | CC(C)n1nc(NC2CCNCC2)c2cnn3cc(-c4ccncc4)cc3c21 [Example 9, 1-isopropyl-N-(piperidin-4-yl)-8-(pyridin-4-yl)-1H-pyrazolo[3,4-d]pyrrolo[1,2-b] pyridazin-3-amine]
3 | 696 | COC(=O)NC1CCC(Nc2nn(C(C)C)c3c2cnn2cc(-c4cccnc4)cc32)CC1 (stereo not drawn) [Example 6, methyl (4-((1-isopropyl-8-(pyridin-3-yl)-1H-pyrazolo[3,4-d]pyrrolo[1,2-b]pyridazin-3-yl)amino)cyclohexyl)carbamate]
4 | 1000 | COC(=O)N1CCC(CNc2nn(C(C)C)c3c2cnn2cc(-c4cccnc4)cc32)CC1 [Example 2, methyl 4-(((1-isopropyl-8-(pyridin-3-yl)-1H-pyrazolo[3,4-d]pyrrolo[1,2-b]pyridazin-3-yl)amino)methyl)piperidine-1-carboxylate]
5 | 896 | CC(C)n1nc(NCC2CCNCC2)c2cnn3cc(-c4cccnc4)cc3c21 [Example 1, 1-isopropyl-N-(piperidin-4-ylmethyl)-8-(pyridin-3-yl)-1H-pyrazolo[3,4-d]pyrrolo[1,2-b] pyridazin-3-amine]
6 | 143 | CC(C)n1nc(NCC2CCN(C)CC2)c2cnn3cc(-c4ccncc4)cc3c21 [Example 5, 1-isopropyl-N-((1-methylpiperidin-4-yl)methyl)-8-(pyridin-4-yl)-1H-pyrazolo[3,4-d] pyrrolo[1,2-b]pyridazin-3-amine]
7 | 232 | COC(=O)N1CCC(CNc2nn(C(C)C)c3c2cnn2cc(-c4ccncc4)cc32)CC1 [Example 4, methyl 4-(((1-isopropyl-8-(pyridin-4-yl)-1H-pyrazolo[3,4-d]pyrrolo[1,2-b]pyridazin-3-yl)amino)methyl)piperidine-1-carboxylate]
8 | 139 | CC(=O)N1CCC(Nc2nn(C(C)C)c3c2cnn2cc(-c4ccncc4)cc32)CC1 [Example 8, 1-(4-((1-isopropyl-8-(pyridin-4-yl)-1H-pyrazolo[3,4-d]pyrrolo[1,2-b]pyridazin-3-yl)amino)piperidin-1-yl)ethan-1-one]
9 | 211 | CC(C)n1nc(NCC2CCNCC2)c2cnn3cc(-c4ccncc4)cc3c21 [Example 3, 1-isopropyl-N-(piperidin-4-ylmethyl)-8-(pyridin-4-yl)-1H-pyrazolo[3,4-d] pyrrolo[1,2-b]pyridazin-3-amine]
